Assay results: patent publication US12685726B2, “Sulfoximines as inhibitors of NaV1.8” (Gruenenthal GmbH, priority 2022, dated 2026)

Biological target: T1, human NaV 1.8 (Homo sapiens, UniProt Q9Y5Y9)
T1 construct: expressed in transfected cells; host or cells: HEK (recombinant cell line)
Assay: Automated whole-cell patch clamp (Qube384) voltage-clamp recordings of sodium currents in HEK-NaV1.8 cell line
Assay type: cell-based
Conditions: read-out: Potency category (human NaV 1.8 IC50)
Outline: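 HEK cells expressing NaV1.8 with b3, whole-cell automated voltage clamp at room temperature or 19° C.; CsF-based internal, pH 7.4 external. State-dependent (−120 mV, V1/2 4 s, −10 mV test pulses) and 10/20 Hz 40-pulse protocols; ~12 min compound, vehicle-corrected, IC50 by 4-parameter logistic fit.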

T1 sequence (Q9Y5Y9 whole entry): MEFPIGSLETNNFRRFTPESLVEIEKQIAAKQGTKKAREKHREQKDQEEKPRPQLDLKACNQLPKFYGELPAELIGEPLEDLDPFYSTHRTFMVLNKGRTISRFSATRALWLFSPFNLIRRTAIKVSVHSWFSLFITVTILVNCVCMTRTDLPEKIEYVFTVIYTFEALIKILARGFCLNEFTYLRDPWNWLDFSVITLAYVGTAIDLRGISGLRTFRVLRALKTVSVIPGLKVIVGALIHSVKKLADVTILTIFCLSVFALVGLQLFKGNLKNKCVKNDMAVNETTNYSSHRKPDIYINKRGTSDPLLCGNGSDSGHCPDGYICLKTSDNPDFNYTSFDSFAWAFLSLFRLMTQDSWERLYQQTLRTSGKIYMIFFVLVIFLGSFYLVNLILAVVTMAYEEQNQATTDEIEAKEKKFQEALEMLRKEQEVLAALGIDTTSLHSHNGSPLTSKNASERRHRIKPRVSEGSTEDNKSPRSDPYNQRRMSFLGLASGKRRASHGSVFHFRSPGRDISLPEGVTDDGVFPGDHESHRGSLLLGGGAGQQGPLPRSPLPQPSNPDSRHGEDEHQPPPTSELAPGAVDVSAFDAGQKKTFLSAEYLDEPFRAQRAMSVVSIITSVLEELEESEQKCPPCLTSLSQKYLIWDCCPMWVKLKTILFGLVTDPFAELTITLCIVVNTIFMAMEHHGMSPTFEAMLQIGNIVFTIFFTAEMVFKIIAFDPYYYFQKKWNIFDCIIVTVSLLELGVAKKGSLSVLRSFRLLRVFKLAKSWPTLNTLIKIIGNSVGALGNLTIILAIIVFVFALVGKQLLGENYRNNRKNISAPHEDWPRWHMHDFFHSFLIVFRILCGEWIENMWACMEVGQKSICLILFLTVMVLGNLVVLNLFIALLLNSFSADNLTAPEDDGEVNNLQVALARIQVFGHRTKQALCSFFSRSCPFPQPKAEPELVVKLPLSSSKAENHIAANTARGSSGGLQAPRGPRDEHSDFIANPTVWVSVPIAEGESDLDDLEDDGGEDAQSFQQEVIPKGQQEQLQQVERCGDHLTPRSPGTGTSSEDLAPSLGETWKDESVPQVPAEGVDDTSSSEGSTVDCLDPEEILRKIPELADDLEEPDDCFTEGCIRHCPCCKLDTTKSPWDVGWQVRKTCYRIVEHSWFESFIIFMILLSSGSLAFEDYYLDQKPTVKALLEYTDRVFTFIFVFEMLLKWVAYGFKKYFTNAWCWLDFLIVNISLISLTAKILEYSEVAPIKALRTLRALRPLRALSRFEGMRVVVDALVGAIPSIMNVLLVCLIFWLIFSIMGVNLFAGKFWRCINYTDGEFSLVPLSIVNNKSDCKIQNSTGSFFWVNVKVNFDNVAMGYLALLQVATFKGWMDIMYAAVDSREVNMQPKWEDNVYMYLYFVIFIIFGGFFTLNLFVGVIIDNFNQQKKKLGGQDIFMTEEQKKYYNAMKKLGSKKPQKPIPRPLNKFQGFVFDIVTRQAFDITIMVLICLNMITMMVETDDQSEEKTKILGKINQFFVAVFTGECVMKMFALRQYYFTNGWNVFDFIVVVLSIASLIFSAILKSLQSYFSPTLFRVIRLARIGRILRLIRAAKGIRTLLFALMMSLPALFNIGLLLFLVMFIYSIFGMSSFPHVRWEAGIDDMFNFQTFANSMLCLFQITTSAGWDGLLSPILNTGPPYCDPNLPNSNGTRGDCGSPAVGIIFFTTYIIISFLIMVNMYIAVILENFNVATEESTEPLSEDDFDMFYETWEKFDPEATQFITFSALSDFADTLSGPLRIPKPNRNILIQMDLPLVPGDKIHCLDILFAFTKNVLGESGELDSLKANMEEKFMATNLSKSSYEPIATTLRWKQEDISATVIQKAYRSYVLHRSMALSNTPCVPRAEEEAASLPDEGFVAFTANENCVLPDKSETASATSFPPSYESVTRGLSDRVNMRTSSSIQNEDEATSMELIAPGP

| IC50 | SMILES |
| --- | --- |
| ≤ 100 nM | C[S@](=N)(=O)c1cc(NC(=O)c2c(C(F)(F)F)c(C3CC3)nn2C[C@@H]2C(F)(F)C23CC3)ccn1 (single isomer, unassigned) [Example 79d, 3-cyclopropyl-1-((2,2-difluorospiro[2.2]pentan-1-yl)methyl)-N-(2-(S-methylsulfonimidoyl)pyridin-4-yl)-4-(trifluoromethyl)-1H-pyrazole-5-carboxamide] |
| ≤ 100 nM | C[C@]1(Cn2nc(C3CC3)c(C(F)(F)F)c2C(=O)Nc2ccnc([S@@](C)(=N)=O)c2)CC(F)(F)C12CC2 (single isomer, unassigned) [Example 92b, 3-cyclopropyl-1-((6,6-difluoro-4-methylspiro[2.3]hexan-4-yl)methyl)-N-(2-(S-methylsulfonimidoyl)pyridin-4-yl)-4-(trifluoromethyl)-1H-pyrazole-5-carboxamide] |
| ≤ 100 nM | CC1(Cn2nc(C3(C(F)(F)F)CC3)c(C(F)(F)F)c2C(=O)Nc2ccnc(S(C)(=N)=O)c2)CC(F)(F)C1 (single isomer, unassigned) [Example 144a, 1-((3,3-Difluoro-1-methylcyclobutyl)methyl)-N-(2-(S-methylsulfonimidoyl)pyridin-4-yl)-4-(trifluoromethyl)-3-(1-(trifluoromethyl)cyclopropyl)-1H-pyrazole-5-carboxamide] |
| ≤ 100 nM | CC1(Cn2nc(C3CC3)c(C(F)(F)F)c2C(=O)Nc2ccnc(S(C)(=O)=NC#N)c2)CC(F)(F)C1 (single isomer, unassigned) [Example 142b, N-(2-(N-Cyano-S-methylsulfonimidoyl)pyridin-4-yl)-3-cyclopropyl-1-((3,3-difluoro-1-methylcyclobutyl)methyl)-4-(trifluoromethyl)-1H-pyrazole-5-carboxamide] |
| ≤ 100 nM | CC1(Cn2nc(C3(F)CC3)c(C(F)(F)F)c2C(=O)Nc2cccc(S(=N)(=O)C(F)F)c2)CC(F)(F)C1 (single isomer, unassigned) [Example 130a, 1-((3,3-Difluoro-1-methylcyclobutyl)methyl)-N-(3-(S-(difluoromethyl)sulfonimidoyl)phenyl)-3-(1-fluorocyclopropyl)-4-(trifluoromethyl)-1H-pyrazole-5-carboxamide] |
| ≤ 100 nM | CC1(Cn2nc(C3(F)CC3)c(C(F)(F)F)c2C(=O)Nc2cccc(S(=N)(=O)C(F)F)c2)CC(F)(F)C1 (single isomer, unassigned) [Example 130b, 1-((3,3-Difluoro-1-methylcyclobutyl)methyl)-N-(3-(S-(difluoromethyl)sulfonimidoyl)phenyl)-3-(1-fluorocyclopropyl)-4-(trifluoromethyl)-1H-pyrazole-5-carboxamide] |
| ≤ 100 nM | CC1(Cn2nc(C3(F)CC3)c(C(F)(F)F)c2C(=O)Nc2cccc(S(C)(=N)=O)c2)CC(F)(F)C1 (single isomer, unassigned) [Example 109a, 1-((3,3-Difluoro-1-methylcyclobutyl)methyl)-3-(1-fluorocyclopropyl)-N-(3-(S-methylsulfonimidoyl)phenyl)-4-(trifluoromethyl)-1H-pyrazole-5-carboxamide] |
| ≤ 100 nM | Cc1c(C(C)(F)F)nn(CC2CCC(F)(F)CC2)c1C(=O)Nc1ccnc(S(C)(=N)=O)c1 (single isomer, unassigned) [Example 9b, 1-((4,4-difluorocyclohexyl)methyl)-3-(1,1-difluoroethyl)-4-methyl-N-(2-(S-methylsulfonimidoyl)pyridin-4-yl)-1H-pyrazole-5-carboxamide] |
| 100 to 1000 nM | COC1(c2nn(CC3(C)CC(F)(F)C3)c(C(=O)Nc3ccnc(S(C)(=N)=O)c3)c2C(F)(F)F)CC1 (single isomer, unassigned) [Example 71a, 1-((3,3-difluoro-1-methylcyclobutyl)methyl)-3-(1-methoxycyclopropyl)-N-(2-(S-methylsulfonimidoyl)pyridin-4-yl)-4-(trifluoromethyl)-1H-pyrazole-5-carboxamide] |
